US10927105B1 (Lundbeck La Jolla Research Center, Inc., priority 2017, dated 2021)

How the values were obtained:
MAGL [1] = biological target: T1, MAGL (Mus musculus (Mouse), UniProt O35678); assay: Mouse brain proteomes from inhibitor treated mice (oral gavage, sacrificed 4 h after administration, brain proteomes analyzed); format: in vivo; conditions: 5 mg/kg oral gavage
FAAH [2] = biological target: T2, FAAH (Mus musculus (Mouse), UniProt O08914); assay: Mouse brain proteomes from inhibitor treated mice (oral gavage, sacrificed 4 h after administration), FAAH; format: in vivo; conditions: 5 mg/kg oral gavage
T2 sequence (O08914 whole entry): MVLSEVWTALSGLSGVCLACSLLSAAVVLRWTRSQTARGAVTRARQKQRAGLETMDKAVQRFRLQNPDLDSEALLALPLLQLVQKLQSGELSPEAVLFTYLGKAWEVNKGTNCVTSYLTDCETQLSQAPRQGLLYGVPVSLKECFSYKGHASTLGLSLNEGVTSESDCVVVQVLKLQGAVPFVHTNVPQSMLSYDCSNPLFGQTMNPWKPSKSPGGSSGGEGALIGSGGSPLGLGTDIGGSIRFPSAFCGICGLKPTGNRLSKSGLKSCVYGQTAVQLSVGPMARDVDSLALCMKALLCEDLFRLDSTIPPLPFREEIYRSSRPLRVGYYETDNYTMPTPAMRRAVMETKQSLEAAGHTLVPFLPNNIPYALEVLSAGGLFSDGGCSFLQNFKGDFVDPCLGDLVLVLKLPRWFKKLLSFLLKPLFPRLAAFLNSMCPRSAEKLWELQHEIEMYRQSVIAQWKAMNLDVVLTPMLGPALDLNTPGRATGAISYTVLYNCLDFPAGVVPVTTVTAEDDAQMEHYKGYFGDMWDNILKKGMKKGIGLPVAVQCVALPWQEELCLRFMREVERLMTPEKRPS

MAGL [3] = biological target: T1, MAGL; assay: In vitro competitive activity-based protein profiling (mouse brain membrane fraction, FP-Rh probe), MAGL band
Experimental: (§1) Biological Evaluation In Vitro Competitive Activity-Based Protein Profiling.
(§2) Proteomes (mouse brain membrane fraction for mouse assays; human prefrontal cortex membrane fractions for human assays) (50 mL, 1.0 mg/mL total protein concentration) were preincubated with varying concentrations of inhibitors at 37° C. After 30 min, FP-Rh (1.0 mL, 50 mM in DMSO) was added and the mixture was incubated for another 30 min at 37° C. Reactions were quenched with SDS loading buffer (15 μL-4×) and run on SDS-PAGE.

FAAH [4] = biological target: T2, FAAH; assay: In vitro competitive activity-based protein profiling (mouse brain membrane fraction, FP-Rh probe), FAAH band
Experimental: as §1, §2

MAGL [5] = biological target: MAGL (Homo sapiens (Human), UniProt Q99685); assay: In vitro competitive activity-based protein profiling (human prefrontal cortex membrane fractions, FP-Rh probe), MAGL band; conditions: for MAGL % inh. 1 μM (human) / IC50: human prefrontal cortex membrane fractions; for IC50: read-out: MAGL IC50 (μM) (human)
Chain of MAGL (Homo sapiens (Human), UniProt Q99685) (Q99685 whole entry): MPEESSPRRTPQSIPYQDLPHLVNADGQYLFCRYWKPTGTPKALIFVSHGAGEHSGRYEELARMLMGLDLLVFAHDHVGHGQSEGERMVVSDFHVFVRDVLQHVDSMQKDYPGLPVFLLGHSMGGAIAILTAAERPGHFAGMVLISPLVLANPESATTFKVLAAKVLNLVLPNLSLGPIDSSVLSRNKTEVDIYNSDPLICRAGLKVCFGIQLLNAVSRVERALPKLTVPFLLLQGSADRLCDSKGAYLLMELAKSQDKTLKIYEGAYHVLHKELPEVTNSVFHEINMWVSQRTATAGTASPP
Experimental: as §1, §2

FAAH [6] = biological target: FAAH (Homo sapiens (Human), UniProt O00519); assay: In vitro competitive activity-based protein profiling (human prefrontal cortex membrane fractions, FP-Rh probe), FAAH band; conditions: for FAAH % inh. 1 μM (human) / IC50: human prefrontal cortex membrane fractions; for IC50: read-out: FAAH IC50 (μM) (human)
Chain of FAAH (Homo sapiens (Human), UniProt O00519) (O00519 whole entry): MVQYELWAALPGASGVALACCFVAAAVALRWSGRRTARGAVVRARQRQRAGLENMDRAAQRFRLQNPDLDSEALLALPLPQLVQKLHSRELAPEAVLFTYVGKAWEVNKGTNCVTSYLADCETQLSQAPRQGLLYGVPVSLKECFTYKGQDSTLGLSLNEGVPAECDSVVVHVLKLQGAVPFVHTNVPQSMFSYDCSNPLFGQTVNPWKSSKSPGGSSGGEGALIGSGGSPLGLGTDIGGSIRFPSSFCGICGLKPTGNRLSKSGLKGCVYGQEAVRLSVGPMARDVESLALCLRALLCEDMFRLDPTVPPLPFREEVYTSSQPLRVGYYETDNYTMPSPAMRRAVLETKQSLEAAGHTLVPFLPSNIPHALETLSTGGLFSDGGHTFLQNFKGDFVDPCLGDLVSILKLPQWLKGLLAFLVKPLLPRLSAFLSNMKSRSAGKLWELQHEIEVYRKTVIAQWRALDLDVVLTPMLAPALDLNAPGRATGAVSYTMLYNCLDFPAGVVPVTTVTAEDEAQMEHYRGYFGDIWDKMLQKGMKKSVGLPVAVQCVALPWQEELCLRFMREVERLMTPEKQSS
Experimental: as §1, §2

FAAH [7] = biological target: T2, FAAH; assay: Mouse brain proteomes from inhibitor treated mice (oral gavage, sacrificed 4 h after administration, brain proteomes analyzed), FAAH; format: in vivo; conditions: 5 mg/kg oral gavage, read-out: FAAH % inh. 5 mg/kg (mouse)

T1 sequence (O35678 whole entry): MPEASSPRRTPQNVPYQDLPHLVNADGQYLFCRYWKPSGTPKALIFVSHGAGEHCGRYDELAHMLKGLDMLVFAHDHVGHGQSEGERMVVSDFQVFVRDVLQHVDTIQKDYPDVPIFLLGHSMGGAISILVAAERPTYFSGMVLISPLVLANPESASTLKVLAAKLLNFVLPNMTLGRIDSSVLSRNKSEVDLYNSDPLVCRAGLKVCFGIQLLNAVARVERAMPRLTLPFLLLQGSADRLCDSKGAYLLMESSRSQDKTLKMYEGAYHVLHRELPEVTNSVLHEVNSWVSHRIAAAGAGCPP

Row | Compound | IC50 (MAGL [5]) | IC50 (FAAH [6]) | further results
1 | O=C(O)c1ccn(C(=O)N2CCC3(CCCN3Cc3ccc(C(F)(F)F)cc3Cl)CC2)n1 [Example 76, 1-(1-(2-chloro-4-(trifluoromethyl)-benzyl)-1,8-diazaspiro[4.5]-decane-8-carbonyl)-1H-pyrazole-3-carboxylic acid] | – | – | MAGL % inh. 5 mg/kg (mouse) (MAGL [1]): D (% inhibition is greater than or equal to 0% and less than 25%); FAAH % inh. 5 mg/kg (mouse) (FAAH [2]): D (% inhibition is greater than or equal to 0% and less than 25%); MAGL % inh. 1 μM (mouse) (MAGL [3]): A (% inhibition is greater than or equal to 75%); FAAH % inh. 1 μM (mouse) (FAAH [4]): D (% inhibition is greater than or equal to 0% and less than 25%); MAGL % inh. 1 μM (human) (MAGL [5]): A (% inhibition is greater than or equal to 75%); FAAH % inh. 1 μM (human) (FAAH [6]): D (% inhibition is greater than or equal to 0% and less than 25%)
2 | O=C(O)c1ccn(C(=O)N2CCC3(CCN(Cc4cc(F)cc(C(F)(F)F)c4)C3)CC2)n1 [Example 152, 1-(2-(3-fluoro-5-(trifluoromethyl)-benzyl)-2,8-diazaspiro[4.5]-decane-8-carbonyl)-1H-pyrazole-3-carboxylic acid] | – | – | MAGL % inh. 1 μM (mouse) (MAGL [3]): A (% inhibition is greater than or equal to 75%); FAAH % inh. 1 μM (mouse) (FAAH [4]): B (% inhibition is greater than or equal to 50% and less than 75%); MAGL % inh. 1 μM (human) (MAGL [5]): A (% inhibition is greater than or equal to 75%); FAAH % inh. 1 μM (human) (FAAH [6]): D (% inhibition is greater than or equal to 0% and less than 25%)
3 | O=C(O)c1ccn(C(=O)N2CCC3(CCN(Cc4cccc(OC(F)(F)F)c4)C3)CC2)n1 [Example 153, 1-(2-(3-(trifluoromethoxy)-benzyl)-2,8-diazaspiro[4.5]-decane-8-carbonyl)-1H-pyrazole-3-carboxylic acid] | – | – | MAGL % inh. 1 μM (mouse) (MAGL [3]): A (% inhibition is greater than or equal to 75%); FAAH % inh. 1 μM (mouse) (FAAH [4]): C (% inhibition is greater than or equal to 25% and less than 50%); MAGL % inh. 1 μM (human) (MAGL [5]): A (% inhibition is greater than or equal to 75%); FAAH % inh. 1 μM (human) (FAAH [6]): D (% inhibition is greater than or equal to 0% and less than 25%)
4 | Cc1cc(CO[C@H]2C[C@@H]3CN(C(=O)n4ccc(C(=O)O)n4)C[C@@H]3C2)ccc1C(F)(F)F [Example 172, 1-(trans-5-((3-methyl-4-(trifluoromethyl)-benyl)oxy)-octahydrocyclopenta-[c]pyrrole-2-carbonyl)-1H-pyrazole-3-carboxylic acid] | < 0.1 µM | < 0.1 µM | –
5 | NC(=O)c1ccn(C(=O)N2CCN(Cc3ccc(C(F)(F)F)cc3N3CCCC3)CC2)n1 [Example 173, 1-(4-(2-(pyrrolidin-1-yl)-4-(trifluoromethyl)-benzyl)piperazine-1-carbonyl)-1H-pyrazole-3-carboxamide] | < 0.1 µM | < 0.1 µM | –
6 | CN(Cc1cccc(C(F)(F)F)c1)C1CCN(C(=O)n2ccc(C(N)=O)n2)CC1 [Example 176, 1-(4-(methyl(3-(trifluoromethyl)-benzyl)amino)-piperidine-1-carbonyl)-1H-pyrazole-3-carboxamide] | < 0.1 µM | < 0.1 µM | –
7 | NC(=O)c1ccn(C(=O)N2CCC3(CCN(Cc4ccc(N5CCCC5)cc4C(F)(F)F)C3)CC2)n1 [Example 195, 1-(2-(4-(pyrrolidin-1-yl)-2-(trifluoromethyl)-benzyl)-2,8-diazaspiro[4.5]-decane-8-carbonyl)-1H-pyrazole-3-carboxamide] | < 0.1 µM | < 0.1 µM | –
8 | NC(=O)c1ccn(C(=O)N2CCC3(CCN(Cc4cc(Cl)cc(C(F)(F)F)c4)C3)CC2)n1 [Example 196, 1-(2-(3-chloro-5-(trifluoromethyl)-benzyl)-2,8-diazaspiro[4.5]-decane-8-carbonyl)-1H-pyrazole-3-carboxamide] | < 0.1 µM | < 0.1 µM | –
9 | NC(=O)c1ccn(C(=O)N2CCN(Cc3cccc(Oc4ccccc4)c3)CC2)n1 [Example 198, 1-(4-(3-phenoxybenzyl)-piperazine-1-carbonyl)-1H-pyrazole-3-carboxamide] | – | – | inhibition at 1 µM (MAGL [5]; read-out: MAGL % inh. 1 μM (human)): > 75%; inhibition at 1 µM (FAAH [6]; read-out: FAAH % inh. 1 μM (human)): > 75%
10 | CN(Cc1ccccc1Cl)[C@H]1C[C@@H]2CN(C(=O)n3ccc(C(N)=O)n3)C[C@@H]2C1 [Example 200, 1-(trans-5-((2-chlorobenzyl)-(methyl)amino)-octahydrocyclopenta-[c]pyrrole-2-carbonyl)-1H-pyrazole-3-carboxamide] | < 0.1 µM | < 0.1 µM | –
11 | O=C(O)c1ccn(C(=O)N2CCC3(CCCN3C(=O)c3ccc(C(F)(F)F)cc3N3CCCC3)CC2)n1 [Example 403, 1-(1-(2-(pyrrolidin-1-yl)-4-(trifluoromethyl)-benzoyl)-1,8-diazaspiro[4.5]-decane-8-carbonyl)-1H-pyrazole-3-carboxylic acid] | – | – | inhibition at 5 mg/kg (FAAH [7]): 0 to 25%
12 | O=C(O)c1ccn(C(=O)N2CCC3(CCCN3Cc3ccc(C(F)(F)F)cc3N3CCCCC3)CC2)n1 [Example 404, 1-(1-(2-(piperidin-1-yl)-4-(trifluoromethyl)-benzyl)-1,8-diazaspiro[4.5]-decane-8-carbonyl)-1H-pyrazole-3-carboxylic acid] | – | – | inhibition at 5 mg/kg (FAAH [7]): 0 to 25%

Continued, in another order:

Row | IC50 (MAGL [5]) | IC50 (FAAH [6]) | Compound | further results
13 | < 0.1 µM | < 0.1 µM | NC(=O)c1ccn(C(=O)N2CC3CN(Cc4cc(Cl)cc(C(F)(F)F)c4)CC3C2)n1 (stereo not drawn) [Example 201, 1-(5-(3-chloro-5-(trifluoromethyl)-benzyl)-octahydropyrrolo-[3,4-c]pyrrole-2-carbonyl)-1H-pyrazole-3-carboxamide] | –
14 | < 0.1 µM | < 0.1 µM | NC(=O)c1ccn(C(=O)N2CC3CN(Cc4cc(Cl)ccc4Cl)CC3C2)n1 (stereo not drawn) [Example 202, 1-(5-(2,5-dichlorobenzyl)-octahydropyrrolo-[3,4-c]pyrrole-2-carbonyl)-1H-pyrazole-3-carboxamide] | –
15 | < 0.1 µM | < 0.1 µM | CN(Cc1ccccc1C(F)(F)F)[C@@H]1C[C@@H]2CN(C(=O)n3ccc(C(N)=O)n3)C[C@@H]2C1 [Example 204, 1-(cis-5-(methyl(2-(trifluoromethyl)-benzyl)amino)-octahydrocyclopenta-[c]pyrrole-2-carbonyl)-1H-pyrazole-3-carboxamide] | –
16 | < 0.1 µM | < 0.1 µM | CN(Cc1ccc(C(F)(F)F)cc1)[C@@H]1C[C@@H]2CN(C(=O)n3ccc(C(N)=O)n3)C[C@@H]2C1 [Example 205, 1-(cis-5-(methyl(4-(trifluoromethyl)-benzyl)amino)-octahydrocyclopenta-[c]pyrrole-2-carbonyl)-1H-pyrazole-3-carboxamide] | –
17 | < 0.1 µM | < 0.1 µM | CN(Cc1ccccc1Cl)[C@@H]1C[C@@H]2CN(C(=O)n3ccc(C(N)=O)n3)C[C@@H]2C1 [Example 206, 1-(cis-5-((2-chlorobenzyl)-(methyl)amino)-octahydrocyclopenta-[c]pyrrole-2-carbonyl)-1H-pyrazole-3-carboxamide] | –
18 | < 0.1 µM | < 0.1 µM | NC(=O)c1ccn(C(=O)N2CC3CN(Cc4cccc(C(F)(F)F)c4)CC3C2)n1 (stereo not drawn) [Example 208, 1-(5-(3-(trifluoromethyl)-benzyl)-octahydropyrrolo-[3,4-c]pyrrole-2-carbonyl)-1H-pyrazole-3-carboxamide] | –
